According to publication PMC2865582 (Journal of medicinal chemistry, 2010):

Assays:
[1] = biological target: T1, GIVA cPLA2 (Homo sapiens, UniProt P47712); test: Mixed micelle-based; format: biochemical; settings: for inhibition at 0.091 mole fraction: read-out: GIVA cPLA2 % Inhibition; for times more potent for GVIA iPLA2 than for GIVA cPLA2: ratio of XI(50) values
T1 sequence (P47712 1-749): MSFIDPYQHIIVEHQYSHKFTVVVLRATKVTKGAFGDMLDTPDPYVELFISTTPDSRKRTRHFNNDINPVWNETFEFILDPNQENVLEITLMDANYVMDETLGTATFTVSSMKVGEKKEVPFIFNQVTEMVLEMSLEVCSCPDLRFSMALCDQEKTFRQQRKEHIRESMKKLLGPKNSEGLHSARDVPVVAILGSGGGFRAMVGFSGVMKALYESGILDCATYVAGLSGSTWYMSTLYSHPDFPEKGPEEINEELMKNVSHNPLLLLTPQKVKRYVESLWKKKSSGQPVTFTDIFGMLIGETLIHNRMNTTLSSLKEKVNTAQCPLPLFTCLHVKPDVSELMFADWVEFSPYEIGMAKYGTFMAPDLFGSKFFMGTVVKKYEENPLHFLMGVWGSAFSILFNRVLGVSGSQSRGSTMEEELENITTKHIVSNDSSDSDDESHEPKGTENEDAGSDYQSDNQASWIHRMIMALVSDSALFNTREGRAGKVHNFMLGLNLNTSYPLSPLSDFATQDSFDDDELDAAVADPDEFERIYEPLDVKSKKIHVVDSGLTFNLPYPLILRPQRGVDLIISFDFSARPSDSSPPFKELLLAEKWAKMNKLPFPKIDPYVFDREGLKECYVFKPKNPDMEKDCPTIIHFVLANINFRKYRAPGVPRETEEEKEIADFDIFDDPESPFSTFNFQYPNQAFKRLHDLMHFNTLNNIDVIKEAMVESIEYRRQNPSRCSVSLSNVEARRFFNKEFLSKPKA

[2] = biological target: T2, human GVIA iPLA2 (Homo sapiens, UniProt O60733); settings: previous mixed micelle assay with DPPC substrate; cited from earlier work
T2 sequence (O60733 1-806): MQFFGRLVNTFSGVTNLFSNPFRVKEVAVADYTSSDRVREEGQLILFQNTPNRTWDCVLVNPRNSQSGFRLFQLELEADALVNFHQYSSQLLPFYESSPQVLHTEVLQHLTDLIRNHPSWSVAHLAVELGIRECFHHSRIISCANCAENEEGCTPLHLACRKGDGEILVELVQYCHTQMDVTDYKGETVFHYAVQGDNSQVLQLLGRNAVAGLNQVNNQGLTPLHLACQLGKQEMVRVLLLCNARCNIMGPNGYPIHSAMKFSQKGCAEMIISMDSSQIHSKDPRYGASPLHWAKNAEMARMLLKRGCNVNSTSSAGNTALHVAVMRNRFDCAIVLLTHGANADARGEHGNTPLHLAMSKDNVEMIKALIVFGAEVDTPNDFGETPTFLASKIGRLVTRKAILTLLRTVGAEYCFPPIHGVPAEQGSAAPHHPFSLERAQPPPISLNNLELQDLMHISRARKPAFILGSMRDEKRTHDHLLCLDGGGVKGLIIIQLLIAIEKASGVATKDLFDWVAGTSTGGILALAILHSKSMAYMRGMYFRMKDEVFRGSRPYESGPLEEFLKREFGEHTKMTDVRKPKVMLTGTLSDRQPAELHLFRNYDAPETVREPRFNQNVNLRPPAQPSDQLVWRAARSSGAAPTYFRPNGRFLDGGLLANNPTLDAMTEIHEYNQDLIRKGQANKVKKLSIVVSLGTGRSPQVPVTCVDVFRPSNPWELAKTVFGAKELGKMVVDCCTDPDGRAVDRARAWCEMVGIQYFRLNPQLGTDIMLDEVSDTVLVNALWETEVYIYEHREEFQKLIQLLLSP

[3] = tested on: experimental autoimmune encephalomyelitis; settings: animal model of multiple sclerosis; cited from earlier work
[4] = biological target: T3, GV sPLA2 (Homo sapiens, UniProt P39877); test: Mixed micelle-based; format: biochemical; settings: lower bound from % inhibition at 0.091 mole fraction
T3 sequence (P39877 21-138): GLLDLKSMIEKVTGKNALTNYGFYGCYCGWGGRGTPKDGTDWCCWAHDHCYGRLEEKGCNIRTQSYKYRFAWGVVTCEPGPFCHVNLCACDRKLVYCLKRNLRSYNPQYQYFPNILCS

Compound | inhibition at 0.091 mole fraction [1] | times more potent for GVIA iPLA2 than for GIVA cPLA2 [1] | times more potent for GVIA iPLA2 than for GV sPLA2 [4] | also measured
O=C(CCCCc1ccccc1)C(F)(F)C(F)(F)F [compound 2, 1,1,1,2,2-pentafluoro-7-phenylheptan-3-one] | < 25% | – | – | GVIA iPLA2 XI(50) determined previously [2]: 0.0073 mole fraction; therapeutic effect in experimental autoimmune encephalomyelitis [3]: beneficial therapeutic effect
O=C(CCCCc1ccc2ccccc2c1)C(F)(F)C(F)(F)C(F)(F)F [12i, 1,1,1,2,2,3,3-Heptafluoro-8-(naphthalen-2-yl)octan-4-one] | – | at least 90 times | at least 90 times | –
O=C(CCCCCc1ccccc1)C(F)(F)C(F)(F)C(F)(F)F [6b, 1,1,1,2,2,3,3-Heptafluoro-9-phenylnonan-4-one] | < 25% | – | – | –
O=C(CCCCc1ccc2ccccc2c1)C(F)(F)F [12g, 1,1,1-Trifluoro-6-(naphthalen-2-yl)hexan-2-one] | – | – | > 455 times | GIVA cPLA2 XI(50) ([1]; mole fraction of inhibitor in total substrate interface giving 50% inhibition): 0.039 ± 0.001 mole fraction
1,1,1,2,2,3,3,5-octafluoro-7-phenyloctan-4-one [compound 25] | – | 76 times | > 180 times | –
